Values quoted from earlier work, collected in patent publication US20140127295A1, “COMPOSITIONS, PROCESS OF PREPARATION OF SAID COMPOSITIONS AND METHOD OF TREATING INFLAMMATORY DISEASES” (priority 2011, published 2014).

Assays:
[1] = in vivo
[2] = in mice

Compound | Tmax [1] [h] | Cmax [1] [ng/mL] | T½ [1] [h] | maximum tolerated dose [2] [mg/kg]
CCC(C)(C)C(=O)O[C@H]1C[C@@H](C)C=C2C=C[C@H](C)[C@H](CC[C@@H]3C[C@@H](O)CC(=O)O3)[C@H]21 [CW302, (1S,3R,7S,8S,8aR)-8-{2-[(4R)-4-hydroxy-6-oxooxan-2-yl]ethyl}-3,7-dimethyl-1,2,3,7,8,8a-hexahydronaphthalen-1-yl 2,2-dimethylbutanoate] | 1.9 |  |  | 
CCCc1nn(C)c2c(=O)[nH]c(-c3cc(S(=O)(=O)N4CCN(C)CC4)ccc3OCC)nc12 [CW305, 5-[2-ethoxy-5-(4-methylpiperazine-1-sulfonyl)phenyl]-1-methyl-3-propyl-1H,4H,7H-pyrazolo[4,3-d]pyrimidin-7-one] | 1 | 440 | 4 to 5 | 8.5
